The values below come from patent US20130079345A1, “[…] ACTIVE DISUBSTITUTED TRIAZINE DERIVATIVES” (BAYER INTELLECTUAL PROPERTY GMBH, priority 2010, published 2013).

pIC50: −log10 of the molar value. Where a name gives a salt, the structure may show the parent alone.

T1 sequence (P50750 whole entry): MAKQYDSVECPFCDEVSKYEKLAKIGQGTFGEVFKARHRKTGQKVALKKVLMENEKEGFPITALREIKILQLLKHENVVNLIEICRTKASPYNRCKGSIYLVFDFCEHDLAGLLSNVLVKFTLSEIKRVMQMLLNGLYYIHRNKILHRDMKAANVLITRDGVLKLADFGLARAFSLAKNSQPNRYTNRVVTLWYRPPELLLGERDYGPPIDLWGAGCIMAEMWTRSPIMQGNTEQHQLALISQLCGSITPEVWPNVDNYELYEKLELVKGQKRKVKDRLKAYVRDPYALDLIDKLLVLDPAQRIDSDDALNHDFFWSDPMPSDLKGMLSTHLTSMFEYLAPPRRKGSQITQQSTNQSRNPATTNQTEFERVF
T1 sequence (O60563 whole entry partner): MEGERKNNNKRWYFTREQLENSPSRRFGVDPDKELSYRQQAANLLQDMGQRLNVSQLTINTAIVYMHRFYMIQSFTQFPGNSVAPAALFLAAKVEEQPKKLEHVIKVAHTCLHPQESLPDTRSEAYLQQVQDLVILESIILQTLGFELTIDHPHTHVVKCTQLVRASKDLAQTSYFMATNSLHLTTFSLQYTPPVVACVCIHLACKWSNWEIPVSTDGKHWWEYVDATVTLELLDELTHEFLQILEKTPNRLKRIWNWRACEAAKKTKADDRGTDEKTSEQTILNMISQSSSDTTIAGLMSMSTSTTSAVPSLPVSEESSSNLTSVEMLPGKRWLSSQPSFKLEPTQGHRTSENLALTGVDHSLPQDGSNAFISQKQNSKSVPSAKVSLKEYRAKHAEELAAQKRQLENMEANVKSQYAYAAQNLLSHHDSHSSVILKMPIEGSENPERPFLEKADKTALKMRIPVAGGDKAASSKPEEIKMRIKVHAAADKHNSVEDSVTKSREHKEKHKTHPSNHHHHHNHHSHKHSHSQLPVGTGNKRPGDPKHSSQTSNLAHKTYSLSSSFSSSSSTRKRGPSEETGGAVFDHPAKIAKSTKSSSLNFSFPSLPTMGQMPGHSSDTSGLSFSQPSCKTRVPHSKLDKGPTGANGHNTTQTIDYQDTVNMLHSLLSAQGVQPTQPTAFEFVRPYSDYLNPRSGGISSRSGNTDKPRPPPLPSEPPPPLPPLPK

The first experiment deals with MDAMB468 cells. The experiment is described as follows: Cell viability assay, MDAMB468 cells. The settings on record: Homo sapiens, MDA-MB-468, 72 h, Cell Titer Glo. In kind it is cell-based. As to the method:
HeLa- or MDAMB468-Cells or MATU ADR, H460, DU145, CACO-2 or B16F10 cells were maintained in RPMI 1640 or McCoy's 5A cell culture medium+glutamine (PAN Biotech GmbH, Aidenbach, Germany; order no. P04-22100; P04-05500) supplemented with 10% fetal calf serum “Gold” (PAA Laboratories GmbH, Pasching, Austria; order no. A15-151) and grown at 37° C., 5% CO2. For the cell viability assay, cells were seeded with a density of 400 (Hela cells, DSMZ Braunschweig order no. ACC57) or 800 (MDAMB468 cells, ATCC order no. HTB-132) per well in 25 μL in 384-well plates (Greiner Bio-One, Frickenhausen, Germany; order no. 781080). After overnight incubation at 37° C./5% CO2, 25 nL or 75 nL compound were added to each sample well by using BIOMEK FXP Laboratory Automation Workstation (Beckman Coulter, USA). Wells with cells and 0.1% or 0.3% DMSO in culture medium were used as positive controls, wells with cells and 10 μM staurosporine in culture medium were used as negative controls. The cells were incubated with the compounds for 72 h at 37° C./5% CO2. For measurement of cell viability […] Cell Titer Glo reagent (Promega, Madison, USA; order no. G7573), 1:2 diluted with cell culture medium, was added to each well. The 384well-plates were placed for 2 min on an orbital microplate shaker and incubated for further 10 min at room temperature to stabilize the luminescence signal. Luminescence was measured by Envision Plate Reader (Perkin Elmer, USA). EC50 values were calculated with the software Excel Fit (IDBS, Guildford, UK) from 3-fold dilution series comprising at least 8 concentrations in duplicates.
For orientation: Cellular ATP, detected with luciferase, serves as a proxy for viable cell number.
`NS(=O)(=O)Cc1cccc(Nc2ncnc(-c3ccccc3OCc3ccccc3)n2)c1` [B13′, 3-[(4-(2-Benzyloxyphenyl)-1,3,5-triazin-2-yl)amino]benzenemethanesulfonamide trifluoroacetic acid salt] had a negative-log IC50 (pIC50) of 6.80. On the same count and under the same terms, the figure for `CCCS(=O)(=O)Nc1cccc(Nc2ncnc(-c3ccccc3OC)n2)c1` [Compound L1, N-[3-((4-(2-Methoxyphenyl)-1,3,5-triazin-2-yl)amino)phenyl]-propanesulfonamide] is 5.35. `COc1cc(F)ccc1-c1ncnc(Nc2cccc(CS(N)(=O)=O)c2)n1` [Compound B2, 3-[(4-(4-Fluoro-2-methoxyphenyl)-1,3,5-triazin-2-yl)amino]benzenemethanesulfonamide] had a negative-log IC50 (pIC50) of 6.38. `COc1ccccc1-c1ncnc(Nc2cccc(CS(N)(=O)=O)c2)n1` [B1′, 3-[(4-(2-Methoxyphenyl)-1,3,5-triazin-2-yl)amino]benzenemethanesulfonamide trifluoroacetic acid salt] showed a pIC50 of 5.52.

`COc1ccccc1-c1ncnc(Nc2cccc(CCS(N)(=O)=O)c2)n1` [Compound D1, 2-[3-((4-(2-Methoxyphenyl)-1,3,5-triazin-2-yl)amino)phenyl]ethanesulfonamide] had a pIC50 of 5.34. With `COc1ccccc1-c1ncnc(Nc2ccccc2)n1` [Compound P1, 4-(2-Methoxyphenyl)-N-phenyl-1,3,5-triazine-2-amine], the pIC50 is 4.88. With `COc1ccccc1-c1ncnc(Nc2cccc(S(N)(=O)=O)c2)n1` [C1′, 3-[(4-(2-Methoxyphenyl)-1,3,5-triazin-2-yl)amino]benzenesulfonamide trifluoroacetic acid salt], the pIC50 is 6.10.

Regarding `COc1ccccc1-c1ncnc(Nc2cccc([N+](=O)[O-])c2)n1` [Compound H1, 4-(2-Methoxyphenyl)-N-(3-nitrophenyl)-1,3,5-triazine-2-amine], the negative-log IC50 (pIC50) was 6.08.

The next experiment has as its target T1, CDK9/CycT1 (Homo sapiens, UniProt P50750).
T1 construct: Recombinant full-length His-tagged human CDK9 and CycT1; His; purchased Invitrogen PV4131; host or cells: insect cells
In words: CDK9/CycT1 kinase assay (TR-FRET). The settings on record: ATP 10 μM, values given in μM. In kind it is biochemical. From the text: CDK9/CycT1-inhibitory activity of compounds of the present invention was quantified employing the CDK9/CycT1 TR-FRET assay as described in the following paragraphs.
Recombinant full-length His-tagged human CDK9 and CycT1, expressed in insect cells and purified by Ni-NTA affinity chromatography, were purchased from Invitrogen (catalogue number PV4131). A biotinylated peptide biotin-Ttds-[…] (C-terminus in amide form), which can be purchased from e.g the company JERINI Peptide Technologies (Berlin, Germany), was used as a substrate for the kinase reaction.
For the assay, 50 nl of a 100-fold concentrated solution of the test compound in DMSO was pipetted into a well of a black low-volume 384-well microtiter plate (Greiner Bio-One, Frickenhausen, Germany), 2 μl of a solution of CDK9/CycT1 in aqueous assay buffer [50 mM Tris/HCl pH 8.0], 10 mM MgCl2, 1.0 mM dithiothreitol, 0.1 mM sodium ortho-vanadate, 0.01% (v/v) Nonidet-P40 (Sigma)] were added. The mixture was incubated at 22° C. for 15 min to allow pre-binding of the test compounds to the enzyme before the start of the kinase reaction. […] The resulting mixture was incubated at 22° C. for a reaction time of 25 minutes. The concentration of CDK9/CycT1 was adjusted depending of the activity of the enzyme lot and was chosen appropriately for measurements in the linear range of the assay. Typical concentrations were in the range of 1 μg/ml. The reaction was stopped by the addition of 5 μl of a solution of TR-FRET detection reagents (0.2 μM streptavidine-XL and 1 nM anti-RB(pSer807/pSer811)-antibody from BD Pharmingen [#558389] and 1.2 nM LANCE EU-W1024 labeled anti-mouse IgG antibody [Perkin-Elmer, product no. AD0077]) in an aqueous EDTA-solution (100 mM EDTA, 0.2% (w/v) bovine serum albumin in 100 mM HEPES/NaOH, pH 7.0).
The resulting mixture was incubated at 22° C. for one hour to allow the formation of a complex between the phosphorylated biotinylated peptide and the detection reagents. Subsequently, the amount of phosphorylated substrate was evaluated by measurement of the resonance energy transfer from the Eu-chelate to the streptavidine-XL. Therefore, the fluorescence emissions at 620 nm and 665 nm after excitation at 350 nm were measured in a HTRF reader, e.g. a Rubystar (BMG Labtechnologies, Offenburg, Germany) or a Viewlux (Perkin-Elmer). The ratio of the emissions at 665 nm and at […] was taken as a measure for the amounts of phosphorylated substrate. The data were normalised, i.e. enzyme reaction without inhibitor corresponds to 0% inhibition, and all other assay components in the absence of the enzyme correspond to 100% inhibition. IC50 values were calculated by a 4-parameter fit using in-house software.
Background: TR-FRET usually uses a lanthanide donor and a delayed reading to cut background.
In turn, `N#Cc1cc(F)ccc1-c1ncnc(Nc2cccc(CS(N)(=O)=O)c2)n1` [Compound U3, 1-(3-{[4-(2-cyano-4-fluorophenyl)-1,3,5-triazin-2-yl]amino}phenyl)methanesulfonamide] returned a half-maximal inhibitory concentration (IC50) of 3.3 µM.

Staying with this experiment, now noted: ATP 10 μM, values in nM.
As to `COc1cc(F)c(F)cc1-c1ncnc(Nc2cccc(CS(N)(=O)=O)c2)n1` [Compound U7, 1-(3-{[4-(4,5-difluoro-2-methoxyphenyl)-1,3,5-triazin-2-yl]amino}phenyl)methanesulfonamide], the IC50 was 0.014 µM. `NS(=O)(=O)Cc1cccc(Nc2ncnc(-c3ccccc3OCc3ccccc3)n2)c1` [Compound B13, 3-[(4-(2-Benzyloxyphenyl)-1,3,5-triazin-2-yl)amino]benzenemethanesulfonamide]: 0.0032 µM corresponded to half-maximal inhibition (IC50). The same measure, in the same setting: the figure for `CNS(=O)(=O)Cc1cccc(Nc2cc(-c3ccccc3OC)ncn2)c1` [Ref2, C-{3-[6-(2-Methoxy-phenyl)-pyrimidin-4-ylamino]-phenyl}-N-methyl methanesulfonamide, reference compound] is 0.04 µM; for `COc1cc(F)ccc1-c1ncnc(Nc2ccc(S(C)(=O)=O)nc2)n1` [Compound U8, 4-(4-fluoro-2-methoxyphenyl)-N-[6-(methylsulfonyl)pyridin-3-yl]-1,3,5-triazin-2-amine] it is 0.32 µM; for `COc1ccccc1-c1cc(Nc2cccc(CS(=O)(=O)N(C)C)c2)ncn1` [Ref4, C-{3-[6-(2-Methoxy-phenyl)-pyrimidin-4-ylamino]-phenyl}-N,N-dimethylmethanesulfonamide, reference compound] it is 0.049 µM. With `COc1cc(F)ccc1-c1ncnc(Nc2cccc(CS(N)(=O)=O)c2)n1` [B2′, 1-(3-{[4-(4-fluoro-2-methoxyphenyl)-1,3,5-triazin-2-yl]amino}phenyl)methanesulfonamide hydrochloride], the IC50 amounted to 0.014 µM.

For `COc1cc(F)ccc1-c1ncnc(Nc2cccc(CS(N)(=O)=O)c2)n1` [Compound B2, 3-[(4-(4-Fluoro-2-methoxyphenyl)-1,3,5-triazin-2-yl)amino]benzenemethanesulfonamide], 0.0081 µM corresponded to half-maximal inhibition (IC50).

The molecule `COc1ccccc1-c1ncnc(Nc2cccc(CS(N)(=O)=O)c2)n1` [Compound B1, 3-[(4-(2-Methoxyphenyl)-1,3,5-triazin-2-yl)amino]benzenemethanesulfonamide] had an IC50 of 0.021 µM. For `CC(C)Oc1cc(F)ccc1-c1ncnc(Nc2cccc(CS(N)(=O)=O)c2)n1` [Compound U2, 1-[3-({4-[4-fluoro-2-(propan-2-yloxy)phenyl]-1,3,5-triazin-2-yl}amino)phenyl]methanesulfonamide], the half-maximal inhibitory concentration (IC50) was 0.028 µM. With `NS(=O)(=O)Cc1cccc(Nc2ncnc(-c3ccccc3Oc3ccccc3)n2)c1` [Compound B14, 1-(3-{[4-(2-phenoxyphenyl)-1,3,5-triazin-2-yl]amino}phenyl)methanesulfonamide], the 50% inhibitory concentration (IC50) worked out at 0.062 µM.

By pIC50 is commonly meant the negative decadic logarithm of the IC50, by convention in mol/L. The IC50 is the concentration at which inhibition is half-maximal.
